Each structure is given as a SMILES string. Bounds are passed on as bounds.

human σ1 receptor, sequence (Q99720 whole entry): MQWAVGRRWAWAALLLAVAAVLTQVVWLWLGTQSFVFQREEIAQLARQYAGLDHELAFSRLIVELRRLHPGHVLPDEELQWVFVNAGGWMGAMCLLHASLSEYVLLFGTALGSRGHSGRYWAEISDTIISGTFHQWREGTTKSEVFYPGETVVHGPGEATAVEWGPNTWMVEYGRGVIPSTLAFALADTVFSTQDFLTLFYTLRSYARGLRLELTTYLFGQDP

This test has as its target human σ1 receptor (Homo sapiens (Human), UniProt Q99720). Kind of test: Human σ1 receptor radioligand assay. The conditions noted are these: transfected HEK-293 membranes, [3H](+)-pentazocine radioligand. It is filed as binding. The method, then: Human σ1 Receptor Radioligand Assay
To investigate binding properties of test compounds to human σ1 receptor, transfected HEK-293 membranes and [^3H](+)-pentazocine (Perkin Elmer, NET-1056), as the radioligand, were used. The assay was carried out with 7 μg of membrane suspension, 5 nM of [^3H](+)-pentazocine in either absence or presence of either buffer or 10 μM Haloperidol for total and non-specific binding, respectively. Binding buffer contained Tris-HCl 50 mM at pH 8. Plates were incubated at 37° C. for 120 minutes. After the incubation period, the reaction mix was then transferred to MultiScreen HTS, FC plates (Millipore), filtered and plates were washed 3 times with ice-cold 10 mM Tris-HCL (pH7.4). Filters were dried and counted at approximately 40% efficiency in a MicroBeta scintillation counter (Perkin-Elmer) using EcoScint liquid scintillation cocktail
`CCN1CC2(CCCN(CCC(C)C)C2)OC2(CC2)C1=O` (stereo not shown) [Example 1, 12-Ethyl-7-isopentyl-4-oxa-7,12-diazadispiro[2.1.5.3]tridecan-13-one] returned a Ki not below 0.5 µM.

Compound `CCN1CC2(CCCN(CCc3ccccc3)C2)OC2(CC2)C1=O` (stereo not shown) [Example 2, 12-Ethyl-7-phenethyl-4-oxa-7,12-diazadispiro[2.1.5.3]tridecan-13-one] returned a Ki not below 0.5 µM.

`CCN1CC2(CCCN(CCc3ccccc3)CC2)OC2(CC2)C1=O` (stereo not shown) [Example 3, 13-ethyl-8-phenethyl-4-oxa-8,13-diazadispiro[2.1.6.3]tetradecan-14-one] had a Ki of less than 0.1 µM.

Compound `CCN1CC2(CCCN(CCC(C)C)CC2)OC2(CC2)C1=O` (stereo not shown) [Example 4, 13-ethyl-8-isopentyl-4-oxa-8,13-diazadispiro[2.1.6.3]tetradecan-14-one] returned a Ki of less than 0.1 µM.

For the compound `CCN1CC2(CN(CCc3ccccc3)C2)OC2(CC2)C1=O` [Example 5], the Ki is less than 0.5 µM.

Compound `CCN1CC2(CN(CCC(C)C)C2)OC2(CC2)C1=O` [Example 6, 10-ethyl-7-isopentyl-4-oxa-7,10-diazadispiro[2.1.3.3]undecan-11-one] had a Ki of less than 0.1 µM.

`O=C1N(c2ccccc2)CC2(CCCN(CCc3ccccc3)C2)OC12CC2` (stereo not shown) [Example 7, 7-phenethyl-12-phenyl-4-oxa-7,12-diazadispiro[2.1.5.3]tridecan-13-one] showed a Ki of less than 0.5 µM.

In the case of `CC(C)CCN1CCCC2(C1)CN(c1ccccc1)C(=O)C1(CC1)O2` (stereo not shown) [Example 8, 7-isopentyl-12-phenyl-4-oxa-7,12-diazadispiro[2.1.5.3]tridecan-13-one], the Ki was less than 0.5 µM.

`O=C1N(c2ccccc2)CC2(CCCN(CCc3ccccc3)CC2)OC12CC2` (stereo not shown) [Example 9, 8-phenethyl-13-phenyl-4-oxa-8,13-diazadispiro[2.1.6.3]tetradecan-14-one] returned a Ki of less than 0.1 µM.

`CC(C)CCN1CCCC2(CC1)CN(c1ccccc1)C(=O)C1(CC1)O2` (stereo not shown) [Example 10, 8-isopentyl-13-phenyl-4-oxa-8,13-diazadispiro[2.1.6.3]tetradecan-14-one] came in with a Ki of less than 0.1 µM.

Turning to `CCN1CC2(CCCN(Cc3ccccc3)C2)OC2(CC2)C1=O` (stereo not shown) [Example 11, 7-Benzyl-12-ethyl-4-oxa-7,12-diazadispiro[2.1.5.3]tridecan-13-one], the Ki was not below 0.5 µM.

The compound `CCN1CC2(CCCN(Cc3ccccc3)CC2)OC2(CC2)C1=O` (stereo not shown) [Example 12, 8-benzyl-13-ethyl-4-oxa-8,13-diazadispiro[2.1.6.3]tetradecan-14-one] displayed a Ki of less than 0.1 µM.

As to `CCN1CC2(CN(Cc3ccccc3)C2)OC2(CC2)C1=O` [Example 13, 7-benzyl-10-ethyl-4-oxa-7,10-diazadispiro[2.1.3.3]undecan-11-one], the Ki is not below 0.5 µM.

For the compound `O=C1N(c2ccccc2)CC2(CCCN(Cc3ccccc3)CC2)OC12CC2` (stereo not shown) [Example 14, 8-benzyl-13-phenyl-4-oxa-8,13-diazadispiro[2.1.6.3]tetradecan-14-one], the Ki was less than 0.1 µM.

Compound `O=C1N(c2ccccc2)CC2(CCCN(Cc3ccccc3)C2)OC12CC2` (stereo not shown) [Example 15, 7-benzyl-12-phenyl-4-oxa-7,12-diazadispiro[2.1.5.3]tridecan-13-one] came in with a Ki not below 0.5 µM.

For the compound `CCN1CC2(CCCN(CCc3ccccc3)CC2)OC2(CC2)C1` (stereo not shown) [Example 16, 13-Ethyl-8-phenethyl-4-oxa-8,13-diazadispiro[2.1.6.3]tetradecane], the Ki is less than 0.1 µM.

On to `CCN1CC2(CC2)OC2(CCCN(Cc3ccccc3)C2)C1` (stereo not shown) [Example 17, 7-benzyl-12-ethyl-4-oxa-7,12-diazadispiro[2.1.5.3]tridecane], for which the Ki is not below 0.5 µM.

For `CCN1CC2(CC2)OC2(CCCN(CCc3ccccc3)C2)C1` (stereo not shown) [Example 18], the inhibition constant Ki is not below 0.5 µM.

`c1ccc(CCN2CCCC3(C2)CN(c2ccccc2)CC2(CC2)O3)cc1` (stereo not shown) [Example 19, 7-phenethyl-12-phenyl-4-oxa-7,12-diazadispiro[2.1.5.3]tridecane] registered a Ki of less than 0.1 µM.

The compound `CC(C)CCN1CCCC2(C1)CN(c1ccccc1)CC1(CC1)O2` (stereo not shown) [Example 20, 7-isopentyl-12-phenyl-4-oxa-7,12-diazadispiro[2.1.5.3]tridecane] had a Ki of less than 0.1 µM.

For the compound `c1ccc(CN2CCCC3(CC2)CN(c2ccccc2)CC2(CC2)O3)cc1` (stereo not shown) [Example 21, 8-benzyl-13-phenyl-4-oxa-8,13-diazadispiro[2.1.6.3]tetradecane], the Ki was less than 0.1 µM.

Turning to `c1ccc(CCN2CCCC3(CC2)CN(c2ccccc2)CC2(CC2)O3)cc1` (stereo not shown) [Example 22, 8-phenethyl-13-phenyl-4-oxa-8,13-diazadispiro[2.1.6.3]tetradecane], the Ki is less than 0.1 µM.

Compound `c1ccc(CN2CCCC3(C2)CN(c2ccccc2)CC2(CC2)O3)cc1` (stereo not shown) [Example 23, 7-benzyl-12-phenyl-4-oxa-7,12-diazadispiro[2.1.5.3]tridecane] had a Ki of less than 0.5 µM.

`O=C(c1ccccc1)N1CC2(CC2)OC2(CCCN(CCc3ccccc3)C2)C1` (stereo not shown) [Example 24, (7-phenethyl-4-oxa-7,12-diazadispiro[2.1.5.3]tridecan-12-yl)(phenyl)methanone] returned a Ki not below 0.5 µM.

For `CC(C)CCN1CCCC2(C1)CN(C(=O)c1ccccc1)CC1(CC1)O2` (stereo not shown) [Example 25, (7-isopentyl-4-oxa-7,12-diazadispiro[2.1.5.3]tridecan-12-yl)(phenyl)methanone], the Ki is less than 0.5 µM.

`CC(C)CN1CCCC2(C1)CN(C(=O)c1ccccc1)CC1(CC1)O2` (stereo not shown) [Example 26, (7-isobutyl-4-oxa-7,12-diazadispiro[2.1.5.3]tridecan-12-yl)(phenyl)methanone] came in with a Ki not below 0.5 µM.

In turn, `O=C(c1ccccc1)N1CC2(CCCN(CCc3ccccc3)CC2)OC2(CC2)C1` (stereo not shown) [Example 27, (8-phenethyl-4-oxa-8,13-diazadispiro[2.1.6.3]tetradecan-13-yl)(phenyl)methanone] came in with an inhibition constant Ki of less than 0.1 µM.

`CC(C)CCN1CCCC2(CC1)CN(C(=O)c1ccccc1)CC1(CC1)O2` (stereo not shown) [Example 28, (8-isopentyl-4-oxa-8,13-diazadispiro[2.1.6.3]tetradecan-13-yl)(phenyl)methanone] came in with a Ki of less than 0.1 µM.

`CC(C)CN1CCCC2(CC1)CN(C(=O)c1ccccc1)CC1(CC1)O2` (stereo not shown) [Example 29, (8-isobutyl-4-oxa-8,13-diazadispiro[2.1.6.3]tetradecan-13-yl)(phenyl)methanone] showed a Ki of less than 0.5 µM.

`CCN1CC2(CCCN(CCc3ccccc3)CC2)OC(C)(C)C1=O` (stereo not shown) [Example 30, 4-ethyl-2,2-dimethyl-9-phenethyl-1-oxa-4,9-diazaspiro[5.6]dodecan-3-one] returned a Ki of less than 0.1 µM.

Turning to `CCN1CC2(CCCN(CCC(C)C)CC2)OC(C)(C)C1=O` (stereo not shown) [Example 31, 4-ethyl-9-isopentyl-2,2-dimethyl-1-oxa-4,9-diazaspiro[5.6]dodecan-3-one], the Ki was less than 0.5 µM.

Compound `CCN1CC2(CCCN(CC(C)C)CC2)OC(C)(C)C1=O` (stereo not shown) [Example 32, 4-ethyl-9-isobutyl-2,2-dimethyl-1-oxa-4,9-diazaspiro[5.6]dodecan-3-one] yielded a Ki of less than 0.5 µM.

The compound `O=C1N(Cc2ccccc2)CC2(CN(CCc3ccccc3)C2)OC12CC2` [Example 33, 10-benzyl-7-phenethyl-4-oxa-7,10-diazadispiro[2.1.3.3]undecan-11-one] showed a Ki of less than 0.1 µM.

`CC1(C)CN(C(=O)c2ccccc2)CC2(CCCN(CCc3ccccc3)CC2)O1` (stereo not shown) [Example 34, (2,2-dimethyl-9-phenethyl-1-oxa-4,9-diazaspiro[5.6]dodecan-4-yl)(phenyl)methanone] had a Ki of less than 0.1 µM.

On to `CCN1CC2(CN(CCOC(C)C)C2)OC2(CC2)C1=O` [Example 35, 10-ethyl-7-(2-isopropoxyethyl)-4-oxa-7,10-diazadispiro[2.1.3.3]undecan-11-one], for which the Ki is not below 0.5 µM.

Consider `CCN1CC2(CN(CCC(C)C)C2)O[C@H](C)C1=O` [Example 36, (R)-8-ethyl-2-isopentyl-6-methyl-5-oxa-2,8-diazaspiro[3.5]nonan-7-one], for which the Ki was not below 0.5 µM.

With `CCN1CC2(CN(CCC(C)C)C2)O[C@@H](C)C1=O` [Example 37, (S)-8-ethyl-2-isopentyl-6-methyl-5-oxa-2,8-diazaspiro[3.5]nonan-7-one], the Ki was not below 0.5 µM.

Take `CCN1CC2(CN(CC(C)C)C2)O[C@H](C)C1=O` [Example 38, (R)-8-ethyl-2-isobutyl-6-methyl-5-oxa-2,8-diazaspiro[3.5]nonan-7-one]: the Ki was not below 0.5 µM.

`CCN1CC2(CN(CC(C)C)C2)O[C@@H](C)C1=O` [Example 39, (S)-8-ethyl-2-isobutyl-6-methyl-5-oxa-2,8-diazaspiro[3.5]nonan-7-one] returned a Ki not below 0.5 µM.

As to `CC(C)CCN1CC2(C1)CN(C(C)C)C(=O)[C@@H](C)O2` [Example 40, (R)-2-isopentyl-8-isopropyl-6-methyl-5-oxa-2,8-diazaspiro[3.5]nonan-7-one], the Ki was not below 0.5 µM.

With `CC(C)CCN1CC2(C1)CN(C(C)C)C(=O)[C@H](C)O2` [Example 41, (S)-2-isopentyl-8-isopropyl-6-methyl-5-oxa-2,8-diazaspiro[3.5]nonan-7-one], the Ki is not below 0.5 µM.

In turn, `CC(C)CN1CC2(C1)CN(C(C)C)C(=O)[C@@H](C)O2` [Example 42, (R)-2-isobutyl-8-isopropyl-6-methyl-5-oxa-2,8-diazaspiro[3.5]nonan-7-one] showed a Ki not below 0.5 µM.

For the compound `CC(C)CN1CC2(C1)CN(C(C)C)C(=O)[C@H](C)O2` [Example 43, (S)-2-isobutyl-8-isopropyl-6-methyl-5-oxa-2,8-diazaspiro[3.5]nonan-7-one], the Ki is not below 0.5 µM.

In general, Ki refers to a measure of affinity in units of concentration, obtained from inhibition or displacement. A higher Ki goes with lower affinity.
